The test system of data set [1] is Human brain microvascular endothelial cells (arterial). Put plainly: Cell growth (cell count) of artery endothelial cells after Aβ stimulation. Type of data set: cell-based. Conditions: for Cell count (relative to control as 100): Artery endothelial cells. How it is done: (§1) Human brain microvascular endothelial cells (HBMEC), human umbilical artery endothelial cells (HUAEC), human umbilical vein endothelial cells (HUVEC) and human aortic smooth muscle cells (HSMC) were obtained from Applied Cell Biology Research Institute. The cells were cultured using a modified MCDB131 medium supplemented with 2% or 10% FBS; those subcultured over 3 to 6 passages were used in the experiments described below.
(§2) Human brain microvascular endothelial cells (arterial and venous) cultured in a 12-well plate by the above-described method were stimulated with Aβ1-40 (0.05 μM, 0.5 μM and 5 μM), Aβ1-42 (0.5 μM), Aβ40-1 (0.5 μM), and control (no Aβ derivative added) for 72 hours. Aβ40-1 has the sequence reverse to that of Aβ1-40. This was used as the control peptide. Next, the number of cells was counted manually using a hemocytometer.

Data set [2] relates to Human brain microvascular endothelial cells (venous). The data set can be described thus: Cell growth (cell count) of venous endothelial cells after Aβ stimulation. Type of data set: cell-based. To be noted: 72 hours. As for the experimental part: as §1, §2
For data set [3], the system named is Human umbilical artery endothelial cells. Put plainly: EC vessel formation on Matrigel, artery endothelial cells. Format: cell-based. Conditions: for Full-length of cells on Matrigel, Mean value: Artery endothelial cells, 72 hours stimulation, 18 hours on Matrigel. How it is done: as §1
(§3) Human umbilical artery endothelial cells and human umbilical vein endothelial cells were stimulated with Aβ1-40 (0.5 μM and 5 μM), Aβ40-1 (0.5 μM), and control (no Aβ derivative added) for 72 hours; after reaching an 80% confluence, endothelial cells were then washed with PBS, trypsinated, and cultured on a 6-well culture plate coated with Matrigel basal membrane matrix (Becton Dickinson Labware) for 18 hours. The cells on the Matrigel were photographed, and the full-length was measured using an NIH image analyzer.
(§4) The unit of measurement is in pixel.

Data set [4] concerns human umbilical vein endothelial cells. Put plainly: EC vessel formation on Matrigel, vein endothelial cells. Format: cell-based. Conditions: 72 hours stimulation, 18 hours on Matrigel. How it is done:
as §1, §3, §4

For the next data set, the system named is endothelial cells. Put plainly: Endothelial cell migration, Boyden chamber assay. To be noted: VEGF 10 ng/ml; for Effect on endothelial migration: Boyden chamber. Format: cell-based, human. As for the experimental part:
as §1
Next, endothelial cell migration was examined using Boyden chamber assay. Briefly, an EBM-2 medium comprising VEGF (10 ng/ml), Aβ1-40 (0.5 μM and 5 μM)+VEGF (10 ng/ml), Aβ40-1 (0.5 μM)+VEGF (10 ng/ml), 10% FBS or control (no Aβ derivative added) was placed in the lower section of a chamber. 5×10^4 endothelial cells (in 50 μL of EBM-2 supplemented with 0.5% bovine serum albumin) were seeded into the upper section of the chamber. Cell migration was measured by counting the cells in four highly magnified fields of vision (×40). Three experiments were performed for each group. (mean ±standard deviation: P<0.05)
The unit of measurement is in cell count/field of vision.

Another data set has as its system c57/BL6J mice. The data set can be described thus: Matrigel plug transplant assay. Type of data set: in vivo, mouse. How it is done: Age-matched male c57/BL6J mice at 8 weeks of age were given 500 μL of Matrigel comprising 50 ng/mL VEGF and Aβ1-40 (5 μM), and 37 units of heparin by subcutaneous injection. Seven days later, the Matrigel plug was carefully recovered from each mouse, washed with phosphate-buffered saline (PBS) three times, and stored under freezing at −20° C. A section ([…]) of the frozen plug was fixed in ice-cooled acetone, and then stained with rat anti-mouse CD31 primary antibody (Pharmingen), FITC-conjugated anti-α smooth muscle actin antibody (Sigma) and Alexa-conjugated goat anti-rat secondary antibody (Molecular Probe).
Blood vessel density in the stained section was evaluated by fluorescence intensity using the NIH image software. The hemoglobin content in each plug was measured as an index of adult vascular regeneration.

The next data set has as its system Human SMC. The data set can be described thus: ELISA assay of VEGF level in SMC culture. Format: cell-based. Conditions: 48 hours after stimulation. How it is done: as §1
Human SMC was cultured in a 12-well culture plate of an MCDB medium comprising 10% FBS. 48 hours after Aβ1-40 stimulation, the VEGF level in each well was tested by enzyme immunoassay (R&D System).

For the next data set, the system named is Akt. The data set can be described thus: Western blot assay, Akt phosphorylation. Conditions: VEGF 10 ng/mL, Aβ1-40 0.5 μM, up to 40 minutes. Format: cell-based, human. As for the experimental part:
(§5) After the EC reached an 80% confluence, the medium was exchanged with an FBS-free fresh medium, and the EC was allowed to stand for 4 hours. Next, the cells were stimulated with human VEGF (10 ng/mL) and Aβ1-40 (0.5 μM) for up to 40 minutes. Total cell protein extract from human endothelial cells was separated on 12.5% SDS-polyacrylamide gel, and transferred to a nitrocellulose membrane. The membrane was subjected to Western blotting using antibodies against human Akt, phosphorylated Akt and phosphorylated ERK (Cell Signaling).
Background: In western blotting, separated proteins are transferred to a membrane and probed.

Another data set concerns ERK. The data set can be described thus: Western blot assay, ERK phosphorylation. Format: cell-based, human. Conditions: VEGF 10 ng/mL, Aβ1-40 0.5 μM, up to 40 minutes. As for the experimental part: as §5
The subject of data set [5] is low-density monocytes from the spleen of a C57BL/6J mouse. Put plainly: Adult vascular stem cell differentiation assay. Conditions: Dil-acetylated LDL and BS-1 double staining; 4 days of cultivation. Type of data set: cell-based. How it is done:
Briefly, low-density monocytes were isolated from the spleen of a C57BL/6J mouse by a density centrifugation method using Histopaque-1083 (Sigma, St. Louis, Mo.). The cells were seeded onto a 4-well glass slide (Nunc International) coated with rat vitronectin (Sigma), and cultured in a medium comprising 2% heat inactivated defined FBS. The medium was supplemented with the endothelial growth supplementation kit, EGM-2MV single aliquot (Clonetics).
After 4 days of cultivation, the cells were incubated with the addition of acetylated LDL (Biomedical Technologies, Stoughton, Mass.), and stained with FITC-conjugated Griffonia simplicifolia lectin I (BS1-lectin) (Vector Laboratories). In 15 fields of vision at 40× magnification, the number of cells double stained with acLDL-Dil and BS1 was counted for each sample as endothelial precursors.

Setting [6] is: Matrigel plug with 50 ng/mL VEGF and Aβ1-40 (5 μM), subcutaneous, seven days.

“Also recorded” adds a separate entry of the source.

Regarding “Aβ1-42: β-amyloid species longer than Aβ1-40 by two residues on the C-terminal side”, in [1] (0.5 μM, 72 hours, FIG. 2), the “Toxic effect on endothelial cells (necrotized cells observed)” value was “toxic effect on endothelial cells”.
With β-amyloid 1-40 [Aβ1-40], the “Cell count (relative to control as 100)” value was 78 ± 9.481 in data set [1] (0.05 μm, 72 hours); 75 ± 8.011 in data set [1] (0.5 μm, 72 hours); 73 ± 11.699 in [1] (5 μm, 72 hours); 80 ± 18.987 in data set [2] (0.05 μm); 73 ± 11.392 in data set [2] (0.5 μm); 70 ± 5.968 in data set [2] (5 μm). For the same substance, in data set [1] (text statement for arterial and venous cells, more conspicuous in arteries), the “Effect on growth of human brain microvascular endothelial cells” value is “suppressed the growth of human brain microvascular endothelial cells”. Besides, the “Full-length of cells on Matrigel, Mean value” in data set [3] (0.5 μm) came to 8719.333 pixel; in [3] (5 μm), 7951.167 pixel; in [4] (0.5 μm), 10599.000 pixel; in data set [4] (5 μm), 9884.333 pixel. Also, the “Effect on EC vessel formation on Matrigel” value in data set [3] (text statement for Tables 2 and 3) is “suppressed EC vessel formation on Matrigel”. Besides, the “Effect on endothelial migration” value in the data set on endothelial cells is “the effect was inhibited”. Moreover, the “Blood vessel density, Mean value” in the data set with c57/BL6J mice (setting [6]) came out at 825.800 pixel. For the same substance, the “Hemoglobin content, Mean value” in the data set with c57/BL6J mice (setting [6]) was found to be 0.084 OD 450/tissue mg. Moreover, the “Effect on adult vascular regeneration in vivo” value in the data set on c57/BL6J mice (Matrigel plug, mice) is “suppressive effect on adult vascular regeneration in vivo”. For the same substance, the “Effect on VEGF secretion from VSMC” value in the data set with Human SMC was “no direct effect on VEGF secretion from VSMC”. Further, the “VEGF level, Mean value” in the data set with Human SMC (DSF, enzyme immunoassay) is listed as 0.080. Besides, the “Intracellular Akt phosphorylation” value in the data set on Akt is on record as “inhibited”. Further, the “ERK phosphorylation caused by VEGF” value in the data set on ERK is “no effect on the ERK phosphorylation caused by VEGF”. For the same substance, in [5], the “Effect on growth and differentiation of vascular stem/precursor cells” value was “inhibitory effect on the differentiation of vascular stem cells; also recorded: suppressed the growth and differentiation of the cultured vascular precursor cells”.
As for “vascular endothelial growth factor [VEGF]”, in the data set on endothelial cells, the “Effect on endothelial migration” value is reported as “endothelial migration was caused by vasculogenesis by VEGF”. The “Cell migration, Mean value” with endothelial cells (substance in lower section of chamber, Aβ1-40 0.5 μM and 5 μM, Aβ40-1 0.5 μM) is listed as 100.018 cell count/field of vision. Besides, in the data set with Akt, the “Intracellular Akt phosphorylation” value is listed as “stimulated”.

(Values after patent US20080025962A1, “Remedy for Alzheimer's Disease” (AnGesMG,Inc., priority 2005, published 2008).)
